Experimental data from US5567728A, “Receptor ligands” (priority 1991, dated 1996).
Structures can show the parent of a compound that is named as a salt.

Assays:
[1] = target: T1, Human thyroid hormone receptor β1 (hThR β1) (Homo sapiens, UniProt P10828); assay: Binding experiments: displacement of 125I-T-3 from hThR β1; conditions: [hThRβ]=5.0×10^-11 M; [125I-T3]=2.0×10^-10 M; pH 7,5; incubated over night (16-20 hours); not above +4° C
T1 construct: made in house; host or cells: insect cells, recombinant baculovirus
T1 sequence (P10828 1-461): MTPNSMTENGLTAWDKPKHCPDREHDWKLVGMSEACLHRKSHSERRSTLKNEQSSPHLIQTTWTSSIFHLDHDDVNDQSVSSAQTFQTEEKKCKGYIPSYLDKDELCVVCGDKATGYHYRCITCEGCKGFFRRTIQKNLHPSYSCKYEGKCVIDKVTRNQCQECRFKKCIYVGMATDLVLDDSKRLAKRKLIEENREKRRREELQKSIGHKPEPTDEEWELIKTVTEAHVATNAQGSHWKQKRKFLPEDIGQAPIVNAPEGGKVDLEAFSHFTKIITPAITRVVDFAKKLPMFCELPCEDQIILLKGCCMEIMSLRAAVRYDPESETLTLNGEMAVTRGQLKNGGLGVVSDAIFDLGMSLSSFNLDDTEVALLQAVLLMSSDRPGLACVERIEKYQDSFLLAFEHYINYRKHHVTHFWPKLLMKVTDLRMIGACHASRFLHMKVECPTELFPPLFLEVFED
Protocol: Human thyroid hormone receptor β1 (hThR β1) was expressed in insect cells using a recombinant baculovirus (Barkhem T., et al. The Journal of Steroid Biochemistry and Molecular Biology: Vol 38, No 6 (1991) p 667).
Solutions of hThR β1 and of ^125 I-T-3 were made in E400 (K2 HPO4 =20 mM, KCl=400 mM, MgCl2 =l mM, EDTA=0,5 mM, monothioglycerol=6 mM, glycerol 8,7% (v/v), histones (type 11AS) 10 μg/ml pH=7,5). Histones and Monothioglycerol were purchased from Sigma (St. Louis, Mo., USA), the other compounds in E400 were from Merck (Darmstadt, BRD). […] Stock solutions of the compound (011) (20 mM) was made in 5% EtOH/1 mM NaOH.
For convenience the incubations were performed over night (16-20 hours).
The incubation was stopped by the loading of 180 μl incubation mixture on a Quik-Sep Sephadex G-25 column (#9041-35-4 ISOLAB, Akron, Ohio, USA). The peak of protein-bound 125 I-T-3 was eluted with 1 ml E400 and collected in a test tube (passage of free T-3 through column is delayed). The eluted radioactivity was measured in a gamma-counter.
All incubations and dilutions were made in polypropylene tubes. Great care was taken to avoid exposure of hThR β1 to temperatures above +4° C.
(DeLean, A., et al, Am. J. Physiol. 235: E97-E102. (1978)).
The calculations were performed in KaleidaGraph™ 2.0.2 (Adelbeck Software) on a Macintosh IIcx computer.
Experiments conducted with [hThRβ]=5.0×10^-11 M and with [^125 I-T3 ]=2.0×10^-10 M

T-3 receptor = assay: biological assay, such as the method of Westerfield et al. (T-3 receptor antagonism); conditions: "can be shown" by a biological assay such as Westerfield et al.; no data given
[2] = system: rat growth hormone (rGH) mRNA levels in cultured rat pituitary cells; conditions: dose dependent; cited from earlier work
[3] = system: isolated intestine of the guinea-pig; conditions: cited from earlier work
[4] = system: coronary vessels of the heart of the rabbit; conditions: cited from earlier work

Structure (SMILES)	IC50 [1]	T-3 receptor antagonism (T-3 receptor)	inhibition of T-3 induced increase in rGH mRNA levels [2]	spasmolytic activity [3]	dilatory effects on coronary vessels [4]
Oc1ccc(Cc2cc(I)c(O)c(I)c2)cc1I [(032), 4', 4-dihydroxy-3'3,5-triiodo-diphenylmethan]	0.42 µM	T-3 receptor antagonists			
CN(C)CCOc1c(I)cc(C(=O)c2ccc(O)c(I)c2)cc1I [(024), 4'-hydroxy-3'-iodo-3,5-diiodo-4-(2-N,N-dimethylaminoethoxy))benzophenon hydrochloride]	11 µM	T-3 receptor antagonists			
CCCCc1oc2ccccc2c1C(O)c1cc(I)c(OCCN(CC)CC)c(I)c1 (stereo not shown) [(001), 3,5-diiodo-4-(2-N,N-diethylaminoethoxy)phenyl-(2-butyl-benzofur-3-yl)methanol hydrochloride]	3.6 µM	T-3 receptor antagonists			
CCN(CC)CCOc1c(I)cc(C(=O)c2c(C)oc3ccccc23)cc1I [(003), 2-methyl-3-(3,5-diiodo-4-(2-N,N-diethylaminoethoxy)-benzoyl)-benzofuran hydrochloride]	10 µM	T-3 receptor antagonists			
Cc1oc2ccccc2c1Cc1cc(I)c(OCC(=O)O)c(I)c1 [(015), 2-methyl-3-(3,5-diiodo-4-carboxymethoxybenzyl)benzofuran]	8 µM	T-3 receptor antagonists			
CCCCc1oc2ccccc2c1C(=O)c1cc(I)c(OCCN(CC)CC)c(I)c1 [Amiodarone]			inhibit T-3 induced increase in rat growth hormone (rGH) mRNA levels		
Cc1oc2ccccc2c1C(=O)c1cc(I)c(O)c(I)c1 [(011), 2-methyl-3-(3,5-diiodo-4-hydroxy-benzoyl)benzofuran]	2.5 µM	T-3 receptor antagonists		spasmolytic activity	some dilatory effects on the coronary vessels
CCCCc1oc2ccccc2c1C(=O)c1ccc(O)c(I)c1 [(029), 2-butyl-3-(3-iodo-4-hydroxybenzoyl)benzofuran]	3.2 µM	T-3 receptor antagonists			
CCCCc1oc2ccccc2c1C(=O)c1cc(I)c(OCC(=O)O)c(I)c1 [(005), 2-n-butyl-3-(3,5-diiodo-4-carboxymethoxy-benzoyl)benzofuran]	4 µM	T-3 receptor antagonists			
